Measurements from US5006512A, “Therapeutic usages of inhibitors for a potassium efflux channel” (priority 1988, dated 1991).
Entries after “also recorded” stand apart in the source; their conditions may differ.

Legend:
sickle red blood cells = assay: Formation of irreversibly sickled cells by sickling-unsickling cycling in vitro; format: cell-based
Description: The inventor previously developed a method to produce irreversibly sickled cells (ISC, which have irreversibly denatured membranes) by exposing sickle red blood cells to a repeated sickling-unsickling cycling in vitro. He used this system to determine the efficacy of a drug in protecting cell membranes (Ohnishi, Br. J. Haematol. 55:665-671, 1983). […] These heavy cells were collected, the amount measured, and the percentage of production calculated (Table 3). As shown in the Table, MR-103 inhibited the formation of irreversibly denatured cells at an extremely low concentration. Even at 20 nM, it inhibited the production of denatured cell almost 50%. […] The subfragment comound MR-117 was also found to have a remarkable effect (Table 4). At a concentration of 60 nM, it inhibited the formation of denatured cells by more than 50%.

brain focal ischemia = assay: Brain focal ischemia, motor performance test; format: in vivo, rat; settings: 0.14 mg/kg
Description: (a) Surgical procedures: Adults male Sprague-Dwaley rats weighing 250-300 g were used in these studies. Anesthesia was induced and maintained with halothane (1.0-2.5%) via closely fitted facial mask. Bilateral common carotid arteries (CCA) were exposed gently and the right CCA was ligated in two places by 4-0 silk suture. To expose the right middle cerebral artery (MCA), the temporal muscles were cut and retracted, then, a small temporal craniotomy (2=2 mm) was performed with a microdrill. Under a microscope, the dura matter was opened with a 26 guage needle, and the MCA was ligated by 10-0 suture with a square knot. Immediately, the left CCA was occluded by a microaneurysmal clip. After the operation, the animal was returned to the cage. One hour later, the left CCA clip was released under awake condition. […]
(c) Motor performance test: The disturbance of motor function was evaluated by the total score obtained from inclined plate test, balance beam test and prehensile test. These motor performance tests were dsesigned to quantify the motor weakness in the global ischemia rats. […] The animal was placed at the highest position of the plate and the time which it could stay on the plate was measured untill 30 sec. […] The time spent on the rod was recorded untill 30 sec. […] The time spent in hanging on the rope was measured untill 30 sec. […]

brain ischemia = assay: Brain focal ischemia, water content of hemisphere (brain edema); format: in vivo, rat; settings: 0.14 mg/kg i.v. thirty minutes prior to ischemic insult; 1 hour focal ischemia
Description: (a) Surgical procedures: Adults male Sprague-Dwaley rats weighing 250-300 g were used in these studies. Anesthesia was induced and maintained with halothane (1.0-2.5%) via closely fitted facial mask. Bilateral common carotid arteries (CCA) were exposed gently and the right CCA was ligated in two places by 4-0 silk suture. To expose the right middle cerebral artery (MCA), the temporal muscles were cut and retracted, then, a small temporal craniotomy (2=2 mm) was performed with a microdrill. Under a microscope, the dura matter was opened with a 26 guage needle, and the MCA was ligated by 10-0 suture with a square knot. Immediately, the left CCA was occluded by a microaneurysmal clip. After the operation, the animal was returned to the cage. One hour later, the left CCA clip was released under awake condition. The sham-operated control was produced in a similar procedure, except for the ligation and clipping of vessels. The operation was usually finished within 30 min.
(b) Water content and ionic analysis: After fixed time interval (1, 3, and 7 days), the animal was sacrificed and the excised cerebral hemispheres were placed in preweighed crucible and measured an wet weight (W.W) with a chemical balance (Mettler, AE 100). […] The water content (% wet weight) was calculated by (W.W -D.W)/W.W. […]

mice = assay: Acute toxicity (LD50) in mice, i.p.; format: in vivo

CSCC[C@@H]1NC(=O)[C@H](CS)NC(=O)[C@H](CCCCN)NC(=O)CNC(=O)[C@H](CCCNC(=N)N)NC(=O)[C@H](CO)NC(=O)[C@H]([C@@H](C)O)NC(=O)[C@H](CC(N)=O)NC(=O)[C@H](Cc2c[nH]cn2)NC(=O)[C@H](CC(C)C)NC(=O)[C@H](CCCNC(=N)N)NC(=O)[C@H](CCC(N)=O)NC(=O)[C@@H]2CSSC[C@@H](C(=O)N[C@@H](Cc3ccc(O)cc3)C(=O)N[C@@H](CO)C(=O)O)NC(=O)[C@H](CCCNC(=N)N)NC(=O)[C@H](CSSC[C@H](N)C(=O)N[C@@H](Cc3c[nH]c4ccccc34)C(=O)N[C@@H](CO)C(=O)N[C@@H](C(C)C)C(=O)N2)NC(=O)[C@H](CCCCN)NC(=O)[C@H](CCCCN)NC(=O)[C@H](CC(N)=O)NC1=O [MR-117]
Irreversibly sickling cells (sickle red blood cells; 60 nM drug during cycling): 14.8 percentages
Reversibly sickling cells (sickle red blood cells; 60 nM drug during cycling): 85.2 percentages
Irreversibly sickling cells (sickle red blood cells; 100 nM drug during cycling): 10.3 percentages
Reversibly sickling cells (sickle red blood cells; 100 nM drug during cycling): 89.7 percentages
Irreversibly sickling cells (sickle red blood cells; 200 nM drug during cycling): 0 percentages
Reversibly sickling cells (sickle red blood cells; 200 nM drug during cycling): 100 percentages
effect on motor performance after brain focal ischemia (in words) (brain focal ischemia; 1 hour focal ischemia, 3 and 7 days): remarkable recovery effect
Motor Score (brain focal ischemia; 3 days after ischemia, scale 0-12, no drug 6.93, sham 11.13): 9.50 ± 0.56
increase of water content of ischemia-exposed hemisphere (brain ischemia): inhibited the increase of water content; also recorded: much reduced
Acute toxicity (LD50) (mice): 0.92 mg/kg
